Laboratory results taken from ChEMBL document CHEMBL3822376, “Potent anticholinesterasic and neuroprotective pyranotacrines as inhibitors of beta-amyloid aggregation, oxidative stress and tau-phosphorylation for Alzheimer's disease” (Eur J Med Chem, 2016).
The source made the active and inactive calls. No cut-off for these calls is given here.

Test system: SH-SY5Y
Experiment: Neuroprotective activity in human SH-SY5Y cells assessed as reversal of 20 nM okadaic acid-induced cell death at 1 to 10 uM after 24 hrs by XTT assay
Format: functional, cell-based
Conditions: not given

Which Activity does the source give for `COc1ccc2cc(C3C4=C(CC(C)(C)CC4=O)Oc4nc5c(c(N)c43)CCCC5)c(Cl)nc2c1` (stereo not given) here?
Its Activity is “Active”.

For `CCOC(=O)C1=C(C)Oc2nc3c(c(N)c2C1c1cc2cc(C)ccc2nc1Cl)CCCC3` (stereo not given), which Activity is on record?
The Activity was “Active”.

Which Activity does the source give for `CCOC(=O)C1=C(C)Oc2nc3c(c(N)c2C1c1cc2ccc(OC)cc2nc1Cl)CCC3` (stereo not given) here?
The Activity was “Active”.

Test system: SH-SY5Y
Experiment: Neuroprotective activity in human SH-SY5Y cells assessed as reversal of 15 nM okadaic acid-induced cell death at 1 to 10 uM after 24 hrs by XTT assay
Format: functional, cell-based
Conditions: not given

Which Activity does the source give for `CCOC(=O)C1=C(C)Oc2nc3c(c(N)c2C1c1cc2cc(C)ccc2nc1Cl)CCCC3` (stereo not given) here?
The Activity was “Active”.

Test system: SH-SY5Y
Experiment: Neuroprotective activity against amyloid beta (1 to 40)-induced cell death in human SH-SY5Y cells assessed as increase in cell viability at 10 uM after 48 hrs by XTT assay
Format: functional, cell-based
Conditions: not given

For `COc1ccc2cc(C3C4=C(CC(C)(C)CC4=O)Oc4nc5c(c(N)c43)CCCC5)c(Cl)nc2c1` (stereo not given), which Activity is on record?
Its Activity is “Active”.

For `CCOC(=O)C1=C(C)Oc2nc3c(c(N)c2C1c1cc2cc(C)ccc2nc1Cl)CCCC3` (stereo not given), which Activity is on record?
The Activity was “Active”.

Molecular target: Cholinesterase (Equus caballus) (UniProt P81908)
Experiment: Inhibition of horse serum BuChE using […] as substrate at 50 uM preincubated for 15 mins followed by substrate addition by Ellman's method relative to control
Conditions: not given

Chain of Cholinesterase (Equus caballus) (P81908 whole entry): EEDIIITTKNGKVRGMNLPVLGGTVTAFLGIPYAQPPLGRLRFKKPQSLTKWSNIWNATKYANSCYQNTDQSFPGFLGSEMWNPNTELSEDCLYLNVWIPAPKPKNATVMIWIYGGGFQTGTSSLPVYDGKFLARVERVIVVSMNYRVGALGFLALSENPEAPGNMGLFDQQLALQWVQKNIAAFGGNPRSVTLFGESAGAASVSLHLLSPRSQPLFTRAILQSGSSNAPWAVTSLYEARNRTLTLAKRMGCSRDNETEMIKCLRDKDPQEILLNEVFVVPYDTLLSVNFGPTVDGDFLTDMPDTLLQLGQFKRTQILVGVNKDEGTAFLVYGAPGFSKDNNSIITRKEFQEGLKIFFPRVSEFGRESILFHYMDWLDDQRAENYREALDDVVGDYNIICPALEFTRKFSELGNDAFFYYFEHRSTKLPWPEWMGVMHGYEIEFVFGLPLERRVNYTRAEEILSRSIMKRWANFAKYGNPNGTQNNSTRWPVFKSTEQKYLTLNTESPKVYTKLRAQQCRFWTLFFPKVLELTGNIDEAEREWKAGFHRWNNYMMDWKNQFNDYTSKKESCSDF

Which inhibition does the source give for `CCOC(=O)C1=C(C)Oc2nc3c(c(N)c2C1c1cc2cc(C)ccc2nc1Cl)CCCC3` (stereo not given) here?
The inhibition was 50%.

Molecular target: Acetylcholinesterase (Electrophorus electricus) (UniProt O42275)
Experiment: Inhibition of electric eel AChE-induced amyloid beta (1 to 40) aggregation at 25 uM measured every 24 hrs for 7 days by Thioflavin T based fluorometric assay relative to control
Conditions: not given

Chain of Acetylcholinesterase (Electrophorus electricus) (O42275 24-633 limits assumed): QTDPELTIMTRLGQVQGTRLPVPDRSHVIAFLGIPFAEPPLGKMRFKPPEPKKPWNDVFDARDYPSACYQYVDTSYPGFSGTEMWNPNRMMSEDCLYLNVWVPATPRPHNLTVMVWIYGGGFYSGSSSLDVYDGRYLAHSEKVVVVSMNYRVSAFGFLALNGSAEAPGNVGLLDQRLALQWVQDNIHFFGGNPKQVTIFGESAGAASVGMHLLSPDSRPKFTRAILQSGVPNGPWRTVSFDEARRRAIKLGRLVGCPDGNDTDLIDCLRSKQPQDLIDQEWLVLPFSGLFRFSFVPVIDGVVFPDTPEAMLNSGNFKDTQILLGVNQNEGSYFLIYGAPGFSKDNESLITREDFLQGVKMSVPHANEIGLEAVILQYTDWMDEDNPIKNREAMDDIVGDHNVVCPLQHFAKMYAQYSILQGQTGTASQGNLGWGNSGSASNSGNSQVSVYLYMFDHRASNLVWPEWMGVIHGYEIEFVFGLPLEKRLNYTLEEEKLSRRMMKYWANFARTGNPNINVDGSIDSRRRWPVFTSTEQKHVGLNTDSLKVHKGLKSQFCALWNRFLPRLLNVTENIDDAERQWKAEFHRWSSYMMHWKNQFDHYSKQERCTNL

Which inhibition does the source give for `CCOC(=O)C1=C(C)Oc2nc3c(c(N)c2C1c1cc2ccc(OC)cc2nc1Cl)CCC3` (stereo not given) here?
The inhibition was 28.3%.

Molecular target: Acetylcholinesterase (Electrophorus electricus, UniProt O42275)
Experiment: not given
Conditions: not given

Chain of Acetylcholinesterase (O42275 whole entry): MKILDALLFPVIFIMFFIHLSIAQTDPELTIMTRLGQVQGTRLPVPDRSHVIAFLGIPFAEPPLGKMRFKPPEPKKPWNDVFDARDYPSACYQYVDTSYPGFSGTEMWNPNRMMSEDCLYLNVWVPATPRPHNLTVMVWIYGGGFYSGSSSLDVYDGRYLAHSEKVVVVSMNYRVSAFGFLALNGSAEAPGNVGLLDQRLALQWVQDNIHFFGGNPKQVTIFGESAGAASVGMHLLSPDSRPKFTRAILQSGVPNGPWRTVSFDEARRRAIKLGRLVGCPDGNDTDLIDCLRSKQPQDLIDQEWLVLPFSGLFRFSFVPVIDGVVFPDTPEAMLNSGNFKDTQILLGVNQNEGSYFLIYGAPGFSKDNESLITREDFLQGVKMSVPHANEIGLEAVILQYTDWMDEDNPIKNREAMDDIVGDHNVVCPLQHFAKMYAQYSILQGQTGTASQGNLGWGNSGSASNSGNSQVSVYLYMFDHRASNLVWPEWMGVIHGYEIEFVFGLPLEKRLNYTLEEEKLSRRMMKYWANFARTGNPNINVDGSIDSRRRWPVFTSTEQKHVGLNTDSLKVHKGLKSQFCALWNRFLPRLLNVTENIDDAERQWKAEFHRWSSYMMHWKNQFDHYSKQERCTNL

Which IC50 does the source give for `COc1ccc2cc(C3C4=C(CC(C)(C)CC4=O)Oc4nc5c(c(N)c43)CCCC5)c(Cl)nc2c1` (stereo not given) here?
The IC50 was 14.8 µM.

Which IC50 does the source give for `CCOC(=O)C1=C(C)Oc2nc3c(c(N)c2C1c1cc2cc(C)ccc2nc1Cl)CCCC3` (stereo not given) here?
Its IC50 is 0.54 µM.

With `CCOC(=O)C1=C(C)Oc2nc3c(c(N)c2C1c1cc2ccc(OC)cc2nc1Cl)CCC3` (stereo not given) as the molecule, how does the IC50 read?
The IC50 was 4.02 µM.

Test system: SH-SY5Y
Experiment: cells
Conditions: Homo sapiens, 24 h
Description: Neuroprotective activity against rotenone/oligomycin-A-induced cell death in human SH-SY5Y cells assessed as increase in cell viability after 24 hrs by XTT assay

Which EC50 does the source give for `COc1ccc2cc(C3C4=C(CC(C)(C)CC4=O)Oc4nc5c(c(N)c43)CCCC5)c(Cl)nc2c1` (stereo not given) here?
Its EC50 is 12200 nM.

For `CCOC(=O)C1=C(C)Oc2nc3c(c(N)c2C1c1cc2cc(C)ccc2nc1Cl)CCCC3` (stereo not given), which EC50 is on record?
Its EC50 is 2430 nM.

For `CCOC(=O)C1=C(C)Oc2nc3c(c(N)c2C1c1cc2ccc(OC)cc2nc1Cl)CCC3` (stereo not given), which EC50 is on record?
The EC50 was 2400 nM.

Test system: not listed separately
Experiment: in vitro
Conditions: human, SH-SY5Y cells
Description: Neurotoxicity in human SH-SY5Y cells assessed as cell viability at 10 uM after 24 hrs by XTT assay relative to control

For `COc1ccc2cc(C3C4=C(CC(C)(C)CC4=O)Oc4nc5c(c(N)c43)CCCC5)c(Cl)nc2c1` (stereo not given), which viability at 24 h, 10 µM is on record?
Its viability at 24 h, 10 µM is 103%.

Which viability at 24 h, 10 µM does the source give for `CCOC(=O)C1=C(C)Oc2nc3c(c(N)c2C1c1cc2cc(C)ccc2nc1Cl)CCCC3` (stereo not given) here?
Its viability at 24 h, 10 µM is 97.2%.

For `CCOC(=O)C1=C(C)Oc2nc3c(c(N)c2C1c1cc2ccc(OC)cc2nc1Cl)CCC3` (stereo not given), which viability at 24 h, 10 µM is on record?
The viability at 24 h, 10 µM was 116%.

Test system: not listed separately
Experiment: in vitro
Conditions: human, SH-SY5Y cells
Remark: another data set of the same source
Description: Neurotoxicity in human SH-SY5Y cells assessed as cell viability at 25 uM after 24 hrs by XTT assay relative to control

For `COc1ccc2cc(C3C4=C(CC(C)(C)CC4=O)Oc4nc5c(c(N)c43)CCCC5)c(Cl)nc2c1` (stereo not given), which viability at 24 h, 25 µM is on record?
The viability at 24 h, 25 µM was 113%.

Which viability at 24 h, 25 µM does the source give for `CCOC(=O)C1=C(C)Oc2nc3c(c(N)c2C1c1cc2cc(C)ccc2nc1Cl)CCCC3` (stereo not given) here?
The viability at 24 h, 25 µM was 112%.

With `CCOC(=O)C1=C(C)Oc2nc3c(c(N)c2C1c1cc2ccc(OC)cc2nc1Cl)CCC3` (stereo not given) as the molecule, how does the viability at 24 h, 25 µM read?
The viability at 24 h, 25 µM was 106%.

Test system: not listed separately
Experiment: in vitro
Conditions: human, SH-SY5Y cells
Remark: another data set of the same source
Description: Neurotoxicity in human SH-SY5Y cells assessed as cell viability at 50 uM after 24 hrs by XTT assay relative to control

For `COc1ccc2cc(C3C4=C(CC(C)(C)CC4=O)Oc4nc5c(c(N)c43)CCCC5)c(Cl)nc2c1` (stereo not given), which viability at 24 h, 50 µM is on record?
Its viability at 24 h, 50 µM is 90.6%.

With `CCOC(=O)C1=C(C)Oc2nc3c(c(N)c2C1c1cc2cc(C)ccc2nc1Cl)CCCC3` (stereo not given) as the molecule, how does the viability at 24 h, 50 µM read?
The viability at 24 h, 50 µM was 80.2%.

For `CCOC(=O)C1=C(C)Oc2nc3c(c(N)c2C1c1cc2ccc(OC)cc2nc1Cl)CCC3` (stereo not given), which viability at 24 h, 50 µM is on record?
The viability at 24 h, 50 µM was 112%.

Test system: not listed separately
Experiment: in vitro
Conditions: human, HepG2 cells
Description: Hepatotoxicity in human HepG2 cells assessed as reduction in cell viability by MTT assay

Which EC50 does the source give for `COc1ccc2cc(C3C4=C(CC(C)(C)CC4=O)Oc4nc5c(c(N)c43)CCCC5)c(Cl)nc2c1` (stereo not given) here?
The EC50 was 922 µM.

For `CCOC(=O)C1=C(C)Oc2nc3c(c(N)c2C1c1cc2cc(C)ccc2nc1Cl)CCCC3` (stereo not given), which EC50 is on record?
The EC50 was 128 µM.

With `CCOC(=O)C1=C(C)Oc2nc3c(c(N)c2C1c1cc2ccc(OC)cc2nc1Cl)CCC3` (stereo not given) as the molecule, how does the EC50 read?
The EC50 was 931 µM.

Test system: not listed separately
Experiment: in vitro
Conditions: human, SH-SY5Y cells
Remark: another data set of the same source
Description: Neurotoxicity in human SH-SY5Y cells assessed as cell viability at 0.1 uM after 24 hrs by XTT assay relative to control

With `COc1ccc2cc(C3C4=C(CC(C)(C)CC4=O)Oc4nc5c(c(N)c43)CCCC5)c(Cl)nc2c1` (stereo not given) as the molecule, how does the viability at 24 h, 0.1 µM read?
The viability at 24 h, 0.1 µM was 93.8%.

Which viability at 24 h, 0.1 µM does the source give for `CCOC(=O)C1=C(C)Oc2nc3c(c(N)c2C1c1cc2cc(C)ccc2nc1Cl)CCCC3` (stereo not given) here?
Its viability at 24 h, 0.1 µM is 90.1%.

Which viability at 24 h, 0.1 µM does the source give for `CCOC(=O)C1=C(C)Oc2nc3c(c(N)c2C1c1cc2ccc(OC)cc2nc1Cl)CCC3` (stereo not given) here?
The viability at 24 h, 0.1 µM was 115%.

Test system: not listed separately
Experiment: in vitro
Conditions: human, SH-SY5Y cells
Remark: another data set of the same source
Description: Neurotoxicity in human SH-SY5Y cells assessed as cell viability at 1 uM after 24 hrs by XTT assay relative to control

For `COc1ccc2cc(C3C4=C(CC(C)(C)CC4=O)Oc4nc5c(c(N)c43)CCCC5)c(Cl)nc2c1` (stereo not given), which viability at 24 h, 1 µM is on record?
Its viability at 24 h, 1 µM is 95.6%.

Which viability at 24 h, 1 µM does the source give for `CCOC(=O)C1=C(C)Oc2nc3c(c(N)c2C1c1cc2cc(C)ccc2nc1Cl)CCCC3` (stereo not given) here?
The viability at 24 h, 1 µM was 82.9%.

For `CCOC(=O)C1=C(C)Oc2nc3c(c(N)c2C1c1cc2ccc(OC)cc2nc1Cl)CCC3` (stereo not given), which viability at 24 h, 1 µM is on record?
The viability at 24 h, 1 µM was 135%.

Test system: not listed separately
Experiment: in vitro
Conditions: human, SH-SY5Y cells
Remark: another data set of the same source
Description: Neurotoxicity in human SH-SY5Y cells assessed as cell viability at 5 uM after 24 hrs by XTT assay relative to control

With `COc1ccc2cc(C3C4=C(CC(C)(C)CC4=O)Oc4nc5c(c(N)c43)CCCC5)c(Cl)nc2c1` (stereo not given) as the molecule, how does the viability at 24 h, 5 µM read?
The viability at 24 h, 5 µM was 113%.

For `CCOC(=O)C1=C(C)Oc2nc3c(c(N)c2C1c1cc2cc(C)ccc2nc1Cl)CCCC3` (stereo not given), which viability at 24 h, 5 µM is on record?
Its viability at 24 h, 5 µM is 101%.

With `CCOC(=O)C1=C(C)Oc2nc3c(c(N)c2C1c1cc2ccc(OC)cc2nc1Cl)CCC3` (stereo not given) as the molecule, how does the viability at 24 h, 5 µM read?
The viability at 24 h, 5 µM was 119%.
